Reference: patent EP4032896A1, “THIAZOLOPYRIMIDONES AS INHIBITORS OF DDR1/2 AND THERAPEUTIC USES THEREOF” (Fundación del Sector Público Estatal Centro Nacional de …, priority 2021, dated 2022)

Assays:
DDR1 [1] = target: T1, DDR1 (Homo sapiens, UniProt Q08345); assay: LanthaScreen Eu-Kinase Binding Assay (TR-FRET tracer displacement), DDR1; conditions: catalytic domain GST Tag DDR1; Kinase Tracer 178
T1 construct: The enzymes were purchased as a catalytic domain GST Tag DDR1(#PR6913A); purchased ThermoFisher PR6913A
Source text: (§1) DDR1/2 binding assay: The binding assay relies on the LanthaScreen ™ Eu-Kinase Binding Assay (ThermoFisher Scientfic). This is a kinase assay platform based on measuring the binding and displacement of an Alexa Fluor® conjugate of an ATP-competitive kinase inhibitor or tracer at a kinase active site (Kinase Tracer 178. #PV5593). Binding of the tracer to the kinase is detected by addition of a europium (Eu)-labeled anti-GST antibody (#PV 5594) which specifically labels the kinase of interest. This binding results in a high degree of fluorescence resonance energy transfer (FRET), whereas displacement of the tracer with a kinase inhibitor results in a loss of FRET. The enzymes were purchased as a catalytic domain GST Tag DDR1(#PR6913A) and DDR2 (#PR7167A) from ThermoFisher. Assay conditions were as indicated by the kit manufacturers. Assays were performed in 384-well plates. The final read out was generated using an EnVision plate reader (Perkin-Elmer). The emission ratio was calculated by dividing the acceptor/tracer emission (665 nm) by the antibody/donor emission (615 nm). Values were plotted against the inhibitor concentration and fit to a sigmoid dose-response curve using Activity base by IDBS software.

DDR2 = target: T2, DDR2 (Homo sapiens, UniProt Q16832); assay: LanthaScreen Eu-Kinase Binding Assay (TR-FRET tracer displacement), DDR2; conditions: catalytic domain GST Tag DDR2; Kinase Tracer 178
T2 construct: The enzymes were purchased as a catalytic domain GST Tag DDR1(#PR6913A) and DDR2 (#PR7167A); purchased ThermoFisher PR7167A
T2 sequence (Q16832 563-849 limits assumed): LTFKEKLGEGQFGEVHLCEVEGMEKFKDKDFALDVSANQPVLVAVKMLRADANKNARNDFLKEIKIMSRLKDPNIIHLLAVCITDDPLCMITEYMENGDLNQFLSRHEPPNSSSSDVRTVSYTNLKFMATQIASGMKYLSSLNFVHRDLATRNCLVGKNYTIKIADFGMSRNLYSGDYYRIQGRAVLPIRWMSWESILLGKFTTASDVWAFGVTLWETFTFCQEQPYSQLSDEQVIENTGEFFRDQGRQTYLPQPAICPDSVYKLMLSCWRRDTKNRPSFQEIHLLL
Source text: as §1

DDR1 [2] = target: T3, DDR1 (Mus musculus, UniProt Q03146); assay: Cellular assay: inhibition of Collagen I-induced DDR1 autophosphorylation in HEK293T cells transiently transfected with DDR1 plasmid (Western blot); type: cell-based, human; conditions: pcDNA3.1 DDR1 WT mouse plasmid, compound 1 h, then 10 µg/mL Collagen I 1 h, P-DDR1 (Y513), read-out: pDDR1 EC50
T3 construct: expressed in transfected cells; host or cells: HEK293T
T3 sequence (Q03146 20-911): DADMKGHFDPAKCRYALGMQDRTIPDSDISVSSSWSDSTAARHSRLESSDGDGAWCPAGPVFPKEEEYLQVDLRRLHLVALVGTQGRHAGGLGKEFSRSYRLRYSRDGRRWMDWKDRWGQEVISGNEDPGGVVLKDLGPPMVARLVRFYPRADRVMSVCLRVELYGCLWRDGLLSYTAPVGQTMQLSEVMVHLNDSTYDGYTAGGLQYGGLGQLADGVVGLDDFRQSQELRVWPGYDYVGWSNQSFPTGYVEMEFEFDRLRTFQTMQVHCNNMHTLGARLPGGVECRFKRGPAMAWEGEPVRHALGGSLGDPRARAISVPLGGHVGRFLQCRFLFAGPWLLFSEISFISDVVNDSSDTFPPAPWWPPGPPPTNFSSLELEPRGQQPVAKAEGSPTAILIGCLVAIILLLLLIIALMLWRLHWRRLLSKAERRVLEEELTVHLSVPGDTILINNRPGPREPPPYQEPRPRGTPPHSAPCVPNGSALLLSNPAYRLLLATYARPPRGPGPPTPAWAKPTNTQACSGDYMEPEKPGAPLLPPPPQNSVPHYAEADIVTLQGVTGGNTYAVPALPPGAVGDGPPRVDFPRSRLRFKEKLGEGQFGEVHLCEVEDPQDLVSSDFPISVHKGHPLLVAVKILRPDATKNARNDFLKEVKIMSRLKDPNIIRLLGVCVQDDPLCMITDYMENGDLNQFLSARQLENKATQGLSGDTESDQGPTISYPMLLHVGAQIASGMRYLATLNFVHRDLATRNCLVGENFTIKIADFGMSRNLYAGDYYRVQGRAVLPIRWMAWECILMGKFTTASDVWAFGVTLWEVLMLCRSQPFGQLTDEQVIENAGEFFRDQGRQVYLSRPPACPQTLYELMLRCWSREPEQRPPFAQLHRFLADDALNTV
Method: DDR1/2 cellular assay: Transient transfection of HEK293T cells with DDR1 plasmid is used to study the inhibition of the autophosphorylation of DDR1 induced by Collagen I in cells. HEK293T are seeded, 6x10^5 cells per well in 6-well plates and incubated for 6 h at 37 °C, 5% CO2. Then, cells are transfected using Effectene reactive (Quiagen) with pcDNA3.1 DDR1 WT mouse plasmid. Cells are incubated with transfection complexes under normal growth conditions for 24 h. After that, medium is replaced with fresh medium and cells are incubated for an additional 18 h. Eight serial 1:3 compound dilutions are made in DMSO. The compounds are added to each well of 6 well cell plates and are incubated at 37 °C under CO2 atmosphere 1 h. DDR1's autophosphorylation is stimulated by 1h treatment with 10 µg/mL Collagen I. Then, cells are washed in PBS, lyse adding 100 µl of complete RIPA protein lysis buffer (RIPA Buffer, 1 mM DTT, 5 mM Bezamidine, 10 µg/mL Aprotinin, 10 µg/mL Leupeptin, 710 ng/mL Pepstatin A, 100 µg/mL Trypsin Inhibitor, 40 µg/mL Bestatin, completed with PhosSTOP EASYpack and complete Mini, EDTA-free) and incubated 20 minutes at 4 °C and then centrifugated. Lysates are kept at -80 °C. The protein content of the lysates is determined by DC protein assay (Biorad, Ref. 5000116). The proteins are resolved by SDS-PAGE and transferred to nitrocellulose membrane (GE Healthcare #10600003). The membranes are incubated overnight at 4 °C with antibodies specific for DDR1 (D1G6) (Cell signaling #5583), P-DDR1 (Y513) (E1N8F) (Cell Signaling # 14531) they are washed and then incubated with Alexa Fluor 680 goat anti-rabbit IgG secondary antibodies (Invitrogen, A21076). The bands are visualized and quantified using an Odyssey infrared imaging system (Li-Cor Biosciences). The percentage of DDR1 phosphorylation is finally plotted against concentration for each compound and EC50s for intracellular DDR1 inhibition are calculated using ActivityBase from IDBS.

T1 sequence (Q08345 610-905 limits assumed): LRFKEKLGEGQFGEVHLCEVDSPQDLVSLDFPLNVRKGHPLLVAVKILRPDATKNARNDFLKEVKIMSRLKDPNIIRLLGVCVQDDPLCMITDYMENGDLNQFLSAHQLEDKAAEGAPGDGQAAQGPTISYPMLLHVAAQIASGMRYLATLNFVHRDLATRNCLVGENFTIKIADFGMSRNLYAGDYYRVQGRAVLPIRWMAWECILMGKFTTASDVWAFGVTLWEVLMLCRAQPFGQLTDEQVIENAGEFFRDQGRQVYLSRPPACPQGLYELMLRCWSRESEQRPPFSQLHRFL

| Compound | IC50 (DDR1 [1]) | IC50 (DDR2) | EC50 (DDR1 [2]) |
| --- | --- | --- | --- |
| NS(=O)(=O)c1cccc(Nc2nccc(-c3sc4nccc(=O)n4c3-c3ccccc3)n2)c1 [Compound 30, 3-[4-(5-Oxo-3-phenyl-5H-thiazolo[3,2-a]pyrimidin-2-yl)-pyrimidin-2-ylamino]-benzenesulfonamide] | 13.9 nM | 50 nM | 87.4 nM |
| O=c1ccnc2sc(-c3ccnc(Nc4cccc(N5CCN(CCO)CC5)c4)n3)c(-c3ccccc3)n12 [Compound 31, 2-(2-{3-[4-(2-Hydroxy-ethyl)-piperazin-1-yl]-phenylamino}-pyrimidin-4-yl)-3-phenyl-thiazolo[3,2-a]pyrimidin-5-one] | 15.5 nM | 18 nM | 192 nM |
| NS(=O)(=O)c1cccc(Nc2nccc(-c3sc4nccc(=O)n4c3-c3ccccc3Cl)n2)c1 [Compound 37, 3-{4-[3-(2-Chloro-phenyl)-5-oxo-5H-thiazolo[3,2-a]pyrimidin-2-yl]-pyrimidin-2-ylamino}-benzenesulfonamide] | 5.19 nM | 24.2 nM | 36 nM |
| CN1CCN(c2ccc(Nc3nccc(-c4sc5nccc(=O)n5c4-c4ccccc4Cl)n3)cc2)CC1 [Compound 39, 3-(2-Chloro-phenyl)-2-{2-[4-(4-methyl-piperazin-1-yl)-phenylamino]-pyrimidin-4-yl}-thiazolo[3,2-a]pyrimidin-5-one] | 7.03 nM | 21.5 nM | 35.3 nM |
| NS(=O)(=O)c1cccc(Nc2nccc(-c3sc4nccc(=O)n4c3-c3cccc(Cl)c3)n2)c1 [Compound 40, 3-{4-[3-(3-Chloro-phenyl)-5-oxo-5H-thiazolo[3,2-a]pyrimidin-2-yl]-pyrimidin-2-ylamino}-benzenesulfonamide] | 16.4 nM | 61.6 nM | 113 nM |
| CN1CCN(c2ccc(Nc3nccc(-c4sc5nccc(=O)n5c4-c4cccc(Cl)c4)n3)cc2)CC1 [Compound 42, 3-(3-Chloro-phenyl)-2-{2-[4-(4-methyl-piperazin-1-yl)-phenylamino]-pyrimidin-4-yl}-thiazolo[3,2-a]pyrimidin-5-one] | 5.8 nM | 17.9 nM | 30.7 nM |
| O=c1ccnc2sc(-c3ccnc(Nc4cccc(N5CCN(CCO)CC5)c4)n3)c(-c3ccc(Cl)cc3)n12 [Compound 44, 3-(4-Chloro-phenyl)-2-(2-{3-[4-(2-hydroxy-ethyl)-piperazin-1-yl]-phenylamino}-pyrimidin-4-yl)-thiazolo[3,2-a]pyrimidin-5-one] | 2.73 nM | 11.7 nM | 24.9 nM |
| CN1CCN(c2ccc(Nc3nccc(-c4sc5nccc(=O)n5c4-c4ccc(Cl)cc4)n3)cc2)CC1 [Compound 45, 3-(4-Chloro-phenyl)-2-{2-[4-(4-methyl-piperazin-1-yl)-phenylamino]-pyrimidin-4-yl}-thiazolo[3,2-a]pyrimidin-5-one] | 4.23 nM | 12.6 nM | 7.63 nM |
| COc1cnc(Nc2cccc(S(N)(=O)=O)c2)nc1-c1sc2nccc(=O)n2c1-c1ccccc1 [Compound 69, 3-[5-Methoxy-4-(5-oxo-3-phenyl-5H-thiazolo[3,2-a]pyrimidin-2-yl)-pyrimidin-2-ylamino]-benzenesulfonamide] | 6880 nM | 8620 nM |  |
| CC(C)c1cc(=O)n2c(-c3ccccc3)c(-c3ccnc(Nc4cccc(N5CCN(CCO)CC5)c4)n3)sc2n1 [Compound 73, 2-(2-{3-[4-(2-Hydroxy-ethyl)-piperazin-1-yl]-phenylamino}-pyrimidin-4-yl)-7-isopropyl-3-phenyl-thiazolo[3,2-a]pyrimidin-5-one] | 12.5 nM | 33.3 nM |  |
| Cc1nc2sc(-c3ccnc(Nc4cccc(N5CCN(CCO)CC5)c4)n3)c(-c3ccccc3)n2c(=O)c1C(C)C [Compound 76, 2-(2-{3-[4-(2-Hydroxy-ethyl)-piperazin-1-yl]-phenylamino}-pyrimidin-4-yl)-6-isopropyl-7-methyl-3-phenyl-thiazolo[3,2-a]pyrimidin-5-one] | 64.4 nM | 292 nM |  |

Second part, the compound after the results:

| IC50 (DDR1 [1]) | IC50 (DDR2) | EC50 (DDR1 [2]) | Compound |
| --- | --- | --- | --- |
| 69.9 nM | 186 nM | 339 nM | O=c1ccnc2sc(-c3ccnc(Nc4ccccc4)n3)c(-c3ccccc3)n12 [Compound 29, 3-Phenyl-2-(2-phenylamino-pyrimidin-4-yl)-thiazolo[3,2-a]pyrimidin-5-one] |
| 13.4 nM | 39.4 nM | 15.7 nM | CN1CCN(c2ccc(Nc3nccc(-c4sc5nccc(=O)n5c4-c4ccccc4)n3)cc2)CC1 [Compound 34, 2-{2-[4-(4-Methyl-piperazin-1-yl)-phenylamino]-pyrimidin-4-yl}-3-phenyl-thiazolo[3,2-a]pyrimidin-5-one] |
| 4.22 nM | 16.6 nM | 28.1 nM | O=c1ccnc2sc(-c3ccnc(Nc4cccc(N5CCN(CCO)CC5)c4)n3)c(-c3ccccc3Cl)n12 [Compound 38, 3-(2-Chloro-phenyl)-2-(2-{3-[4-(2-hydroxy-ethyl)-piperazin-1-yl]-phenylamino}-pyrimidin-4-yl)-thiazolo[3,2-a]pyrimidin-5-one] |
| 6.24 nM | 36.9 nM | 40.4 nM | O=c1ccnc2sc(-c3ccnc(Nc4cccc(N5CCN(CCO)CC5)c4)n3)c(-c3cccc(Cl)c3)n12 [Compound 41, 3-(3-Chloro-phenyl)-2-(2-{3-[4-(2-hydroxy-ethyl)-piperazin-1-yl]-phenylamino}-pyrimidin-4-yl)-thiazolo[3,2-a]pyrimidin-5-one] |
| 11.6 nM | 29 nM | 31.4 nM | NS(=O)(=O)c1cccc(Nc2nccc(-c3sc4nccc(=O)n4c3-c3ccc(Cl)cc3)n2)c1 [Compound 43, 3-{4-[3-(4-Chloro-phenyl)-5-oxo-5H-thiazolo[3,2-a]pyrimidin-2-yl]-pyrimidin-2-ylamino}-benzenesulfonamide] |
